The subject of test [1] is T cell clone CK3H6 (A2 restricted gp100 epitope 209-217). Put plainly: Recognition assay for peptide presentation by DC (IFN-γ release ELISA), T cell clone CK3H6. Type of test: cell-based, human. How it is done:
(§1) Dendritic cells were isolated from cytopheresis MNCs of melanoma patients with the HLA haplotypes HIA-A*0201 and HLA-DRβ1*0401. DC were generated from plastic adherent PBMCs cultured in RPMI with 10% human AB-serum, L-glutamine, penicillin-streptomycin, supplemented with GM-CSF 1000 IU/ml and IL-4 1000 IU/ml. By day 6, immature DC were harvested for electroporation.
(§2) 2.5-3×10^6 DC were re-suspended in 100 μl nucleofector solution and added to 5 μg of DNA plasmid in 2-mm electrode gap cuvettes. Transfected DC were immediately plated with CM containing GM/IL4 or let mature using TNFα 100 ng/ml and PGE2 1000 ng/ml. GFP-transfected DCs were collected 16-24 hours later for FACS analysis.
(§3) DC were pulsed with 1 μg/ml of the relevant peptides at 1×10^6 cells/ml. Stimulants were added after 1 hour incubation without washing the peptide.
CK3H6 which recognizes the A2 restricted gp100 epitope 209-217.
(§4) T cell clones were co-incubated with DC in flat 96-well plate for 24 hours. DC were plated immediately after their transfection or pulsing in 6 separated plates, in the presence of GM CSF and IL-4. 1×10^5 T cells were added to 1×10^5 pulsed or transfected DC. In the longitudinal study, T cell clones were added to the transfected/pulsed DC at the following time points: T0=immediately, +12=after 12 hours, 24, 36, 48 and 72 hours. Supernatants were collected after overnight incubation. Interferon gamma release assay was performed to evaluate T cell stimulation using the ELISA method, results are presented in pg/ml.
(§5) Lactacystin was added to DC at concentrations of 25 μM and 50 μM, 4 hours post transfection. DC were incubated with lactacystin for 70 minutes and then washed twice.
(§6) Responding T cells were added after washing the lactacystin and co-incubated. Supernatents were collected after 20 hours.
(§7) For recognition assay of DC epitope presentation, 1×10^5 cells from different T cell clones, that were grown from PBMCs of patients, and were restricted to particular melanoma antigen peptides, were co-incubated with 1×10^5 pulsed or transfected DC, in the presence of GM-CSF and IL-4. T cell clones were added to the transfected/pulsed DC at the following time points: T=0 immediately, T=12, 24, 36, 48, 72 hours. Supernatant was collected after overnight incubation and was subjected to interferon gamma release assay, in order to evaluate the specific T cell activity towards the particular peptide presented by the DC cells.
(§8) The results shown in the following tables represent the amount of Interferon-γ (pg/ml) secreted to the culture medium as an index for T cell stimulation.
On the technique in general: In an ELISA, binding on a coated surface is turned into a signal by an enzyme label.

Test [2] relates to T cell clone BR-B8 (DR4-restricted gp100 epitope 44-59). Put plainly: Recognition assay for peptide presentation by DC (IFN-γ release ELISA), clone BR-B8. The test is classed as cell-based, human. Particulars: control plate; peptide-pulsed DC; clone BR-B8. How it is done:
as §1, §2
pcDNA-MEP and pcDNA-gp100 were co-transfected to detect Class II antigen presentation as an internal control.
BR-B8 which recognizes the DR4-restricted gp100 epitope 44-59.
as §4, §5, §6, §7, §8

For test [3], the system named is T cell clone RB-154 (gp100 154-162 peptide). The test can be described thus: Recognition assay for peptide presentation by DC (IFN-γ release ELISA), clone RB-154. Type of test: cell-based, human. Particulars: control plate; peptide-pulsed DC; clone RB-154. How it is done: as §1, §2, §3, §4, §7, §8
Test [4] deals with TIL 1940 (A2 restricted MART-1 epitope 27-35). Put plainly: Recognition assay for peptide presentation by DC (IFN-γ release ELISA), TIL 1940. Type of test: cell-based, human. Particulars: TIL 1940. How it is done:
as §1, §2, §3
TIL 1940 which recognizes the A2 restricted MART-1 epitope 27-35.
as §4, §5, §6, §7, §8

The subject of test [5] is DC with CM (no T cell clone). The test can be described thus: Recognition assay, CM in place of a T cell clone (IFN-γ background of DC). The test is classed as cell-based, human. Particulars: transfected or peptide-pulsed DC, CM instead of T cell clone. How it is done: as §1, §2, §3, §4, §7, §8
The test system of test [6] is TIL 1383 (A2 restricted tyrosinase epitope 369-377). Put plainly: Recognition assay for peptide presentation by DC (IFN-γ release ELISA), TIL 1383. The test is classed as cell-based, human. Particulars: control plate; peptide-pulsed DC; TIL 1383. As for the experimental part: as §1, §2, §3
TIL 1383 which recognizes the A2 restricted tyrosinase epitope 369-377.
as §4, §5, §6, §7, §8

A further test has as its system HHD mice. Particulars: HLA-A2.1-restricted; cited from earlier work.
The test system of test [7] is CTLs in blood lymphocytes of breast carcinoma patients. Particulars: personal communications; cited from earlier work.
A further test relates to MHC. Particulars: cited from earlier work.
Sequence of MHC (P61769 21-119): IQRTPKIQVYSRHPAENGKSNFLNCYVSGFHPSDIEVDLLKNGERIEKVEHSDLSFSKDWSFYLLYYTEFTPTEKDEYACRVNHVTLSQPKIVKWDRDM
Setting [8] is: control plate, peptide-pulsed DC, T cell clone CK3H6.
[9] abbreviates: transfected or peptide-pulsed DC, Donor 1, T = 12 hours, CK3H6.
Where [10] appears, read: transfected or peptide-pulsed DC, Donor 1, T = 24 hours, CK3H6.
The mark [11] stands for this setting: transfected or peptide-pulsed DC, Donor 1, T = 36 hours, CK3H6.
[12] abbreviates: transfected or peptide-pulsed DC, Donor 1, T = 48 hours, CK3H6.
The mark [13] stands for this setting: transfected or peptide-pulsed DC, Donor 1, T = 72 hours, CK3H6.
Where [14] appears, read: transfected or peptide-pulsed DC, Donor 2, T = 12 hours, CK3H6.
[15] abbreviates: transfected or peptide-pulsed DC, Donor 2, T = 24 hours, CK3H6.
[16] abbreviates: transfected or peptide-pulsed DC, Donor 2, T = 36 hours, CK3H6.
The mark [17] stands for this setting: transfected or peptide-pulsed DC, Donor 2, T = 48 hours, CK3H6.
The mark [18] stands for this setting: transfected or peptide-pulsed DC, Donor 2, T = 72 hours, CK3H6.
The mark [19] stands for this setting: control plate, peptide-pulsed DC.
The mark [20] stands for this setting: transfected or peptide-pulsed DC, Donor 1, T = 12 hours.
[21] abbreviates: transfected or peptide-pulsed DC, Donor 1, T = 24 hours.
[22] abbreviates: transfected or peptide-pulsed DC, Donor 1, T = 36 hours.
Where [23] appears, read: transfected or peptide-pulsed DC, Donor 1, T = 48 hours.
Where [24] appears, read: transfected or peptide-pulsed DC, Donor 1, T = 72 hours.
The mark [25] stands for this setting: transfected or peptide-pulsed DC, Donor 2, T = 12 hours.
[26] abbreviates: transfected or peptide-pulsed DC, Donor 2, T = 24 hours.
The mark [27] stands for this setting: transfected or peptide-pulsed DC, Donor 2, T = 36 hours.
The mark [28] stands for this setting: transfected or peptide-pulsed DC, Donor 2, T = 48 hours.
Where [29] appears, read: transfected or peptide-pulsed DC, Donor 2, T = 72 hours.

For “MART-1 27-35: peptide 27-35 of MART-1, SEQ ID NO: 18”, the “Interferon-γ secreted to the culture medium” value (“Interferon-γ secreted” for short) in [1] (setting [8]) was 1 pg/mL; in test [1] (setting [9]), 11 pg/mL; in test [1] (setting [10]), 6 pg/mL; in test [1] (setting [11]), 10 pg/mL; in test [1] (setting [12]), 0 pg/mL; in test [1] (setting [13]), 0 pg/mL. Also, the “Interferon-γ secreted” value in test [1] (setting [14]) came to 10 pg/mL; in test [1] (setting [15]), 10 pg/mL; in test [1] (setting [16]), 8 pg/mL; in test [1] (setting [17]) it was 0 pg/mL; in test [1] (setting [18]), 0 pg/mL; in test [2] it was 1 pg/mL. The “Interferon-γ secreted” value in test [3] is 1 pg/mL; in [4] (setting [19]) it was over 2000 pg/mL; in [4] (setting [20]) it was 9 pg/mL; in test [4] (setting [21]) it was 435 pg/mL; in test [4] (setting [22]), 99 pg/mL; in test [4] (setting [23]) it was 0 pg/mL. Besides, the “Interferon-γ secreted” value in test [4] (setting [24]) is 0 pg/mL; in test [4] (setting [25]), 448 pg/mL; in test [4] (setting [26]), 254 pg/mL; in [4] (setting [27]) it was 49 pg/mL; in test [4] (setting [28]), 0 pg/mL; in [4] (setting [29]), 0 pg/mL. Besides, the “Interferon-γ secreted” value came out at 10 pg/mL in [5] (Donor 1, T = 12 hours); 0 pg/mL in test [5] (Donor 1, T = 48 hours); 0 pg/mL in test [5] (Donor 1, T = 72 hours); 9 pg/mL in test [5] (Donor 2, T = 12 hours); 7 pg/mL in test [5] (Donor 2, T = 24 hours); 8 pg/mL in test [5] (Donor 2, T = 36 hours). For the same substance, the “Interferon-γ secreted” value in [5] (Donor 2, T = 48 hours) came out at 0 pg/mL; in test [5] (Donor 2, T = 72 hours), 0 pg/mL; in test [6], 1 pg/mL.
Take “MUC1/A7: peptide A7 (NLTISDVSV) of MUC1, SEQ ID NO: 26 (listed as Homo sapiens)”: the “CTL induced upon vaccination, lysis of human carcinoma lines” value in the test with HHD mice is “effectively lysed the human carcinoma lines”. Besides, the “activation of CTLs in blood lymphocytes, patients responding” value in test [7] is given as 2/4. The MHC-binding affinity entry with MHC is on record as “high”.
Regarding “MUC1/D6: peptide D6 (LLLTVLTVV) of MUC1, SEQ ID NO: 25 (listed as Homo sapiens)”, the “CTL induced upon vaccination, lysis of human carcinoma lines” value with HHD mice was “effectively lysed the human carcinoma lines”. In addition, the “activation of CTLs in blood lymphocytes, patients responding” value in test [7] is on record as 3/4. Besides, the MHC-binding affinity result with MHC was “high”.
Consider “TYR 369-377: peptide 369-377 derived from Tyrosinase, SEQ ID NO: 17”, for which the “Interferon-γ secreted” value turned out to be 1 pg/mL in [1] (setting [8]); 1 pg/mL in test [2]; 0 pg/mL in test [3]; 1 pg/mL in test [4] (setting [19]); 69 pg/mL in test [6].
For “gp 100 154-162: peptide 154-162 of gp100, SEQ ID NO: 24”, the “Interferon-γ secreted” value in [1] (setting [8]) is 7 pg/mL; in [2] it was 1 pg/mL; in test [3] it was over 2000 pg/mL; in test [4] (setting [19]) it was 6 pg/mL; in [6], 6 pg/mL.
Take “gp 100 209-217: peptide 209-217 of gp100, SEQ ID NO: 16”: the “Interferon-γ secreted” value in test [1] (setting [8]) was over 2000 pg/mL; in [1] (setting [9]), over 2000 pg/mL; in test [1] (setting [10]), 31 pg/mL; in test [1] (setting [11]), 12 pg/mL; in [1] (setting [12]) it was 0 pg/mL; in test [1] (setting [13]) it was 0 pg/mL. Besides, the “Interferon-γ secreted” value in test [1] (setting [14]) was over 2000 pg/mL; in test [1] (setting [15]), 18 pg/mL; in [1] (setting [16]), 11 pg/mL; in [1] (setting [17]) it was 0 pg/mL; in test [1] (setting [18]), 0 pg/mL; in test [2], 1 pg/mL. Also, the “Interferon-γ secreted” value in test [3] is 1 pg/mL; in [4] (setting [19]) it was 1 pg/mL; in test [4] (setting [20]) it was 10 pg/mL; in test [4] (setting [21]), 1 pg/mL; in test [4] (setting [22]) it was 13 pg/mL; in test [4] (setting [23]) it was 0 pg/mL. Also, the “Interferon-γ secreted” value in test [4] (setting [24]) stood at 0 pg/mL; in test [4] (setting [25]), 12 pg/mL; in test [4] (setting [26]), 6 pg/mL; in test [4] (setting [27]) it was 7 pg/mL; in test [4] (setting [28]) it was 0 pg/mL; in test [4] (setting [29]) it was 0 pg/mL. Also, the “Interferon-γ secreted” value came to 9 pg/mL in test [5] (Donor 1, T = 12 hours); 0 pg/mL in [5] (Donor 1, T = 48 hours); 0 pg/mL in test [5] (Donor 1, T = 72 hours); 8 pg/mL in test [5] (Donor 2, T = 12 hours); 6 pg/mL in test [5] (Donor 2, T = 24 hours); 8 pg/mL in [5] (Donor 2, T = 36 hours). Besides, the “Interferon-γ secreted” value in [5] (Donor 2, T = 48 hours) stood at 0 pg/mL; in test [5] (Donor 2, T = 72 hours) it was 0 pg/mL; in test [6] it was 1 pg/mL.

The values above are taken from patent US20060246095A1, “Multiepitope polypeptides for cancer immunotherapy” (HADASIT MEDICAL RESEARCH SERVICES & DEVELOPMENT LTD., priority 2003, published 2006).
